“And” between values parts separate entries of the source, which are not always exact repeats. Equal values may be shown once. Read-outs that look alike come from different tables or passages of the source. Each block holds one compound with its values, some of them ahead of it.
Legend:
[1] = biological target: wild-type his-tagged mouse Pgp transporter reconstituted into liposomes (Mus musculus, UniProt P21447); experiment: Pgp-coupled ATPase activity
[2] = biological target: T1, mouse Pgp reconstituted in liposomes (Mus musculus, UniProt P21447); conditions: 3.2 mM (saturating) AMPPNP, no verapamil
[3] = biological target: mouse Pgp reconstituted into liposomes (Mus musculus, UniProt P21447)
[4] = biological target: T1, mouse Pgp reconstituted in liposomes; experiment: AMPPNP-induced quenching of Pgp intrinsic tryptophan fluorescence
[5] = 3.2 mM AMPPNP, 1 µM Pgp, no verapamil

mode of inhibition of Pgp-mediated ATP hydrolysis ([1]; 200 µM): non-competitive inhibitor | VMAX Pgp ATPase activity in the presence of Na3VO4 ([1]; 200 µM Na3VO4, range of ATP concentrations, Equation 1): 172 ± 24 nmol/min/mg | Na3VO4 sensitive VMAX for Pgp ([1]; difference in VMAX without and with 200 µM Na3VO4): 447 ± 30 nmol/min/mg
SMILES: [Na+].[Na+].[Na+].[O]=[V]([O-])([O-])[O-] [Na3VO4, sodium orthovanadate]

SMILES: Nc1ncnc2c1ncn2[C@@H]1O[C@H](COP(=O)([O-])OP(=O)([O-])NP(=O)([O-])[O-])[C@@H](O)[C@H]1O.[Li+].[Li+].[Li+].[Li+] [AMPPNP, Adenosine 5’-(β,γ-imido)triphosphate lithium salt]
KSV acrylamide quenching [2]: 0.97 ± 0.16 M⁻¹ | decrease of average STDD amplification factor of AMPPNP ([3]; 3.2 mM AMPPNP and 8 µM verapamil): 15% | increase of average STDD amplification factors of AMPPNP ([3]; 3.2 mM AMPPNP and 1 mM verapamil): more than 20% | average STDD amplification factor for AMPPNP [3, 5]: 63 ± 51 | average STDD amplification factor, purine base [3, 5]: 79 ± 64 | average STDD amplification factor, ribose sugar [3, 5]: 40 ± 11 | K1 (low concentration phase) ([4]; 37 °C, data not shown): 8 µM⁻¹ | K2 (high concentration phase) ([4]; 37 °C, data not shown): 0.017 µM⁻¹ | K1 (low concentration phase, dynamic quenching) ([4]; fit to equation 6): 6.66 +/− 3.41 µM ^−1 | K2 (high concentration phase, static quenching) ([4]; fit to equation 6): 0.022 +/− 0.006 µM ^−1 | fraction quenched, high concentration phase (FH/F0) ([4]; fit to equation 6): 0.074 | fraction quenched, low concentration phase (FL/F0) ([4]; fit to equation 6): 0.16 | Kd ([4]; read-out: KD of AMPPNP for Pgp, from high concentration (static) quenching phase): 45 µM | decrease of Pgp tryptophan fluorescence ([4]; saturating AMPPNP concentration, 1 µM Pgp): about 15%

SMILES: Nc1ncnc2c1ncn2[C@@H]1O[C@H](COP(=O)(O)OP(=O)([O-])OP(=O)([O-])O)[C@@H](O)[C@H]1O.[Na+].[Na+] [ATP, Disodium ATP]
VMAX basal Pgp ATPase activity ([1]; ATP titration in the absence of verapamil, Equation 1): 619 ± 18 nmol/min/mg | increase of ATP affinity in the presence of two bound verapamil molecules ([1]; COPASI fit, KD5 versus KD3, saturating verapamil): ~ 4 fold and 4 fold | Vmax0 (basal ATPase activity, E-ATP) ([1]; COPASI fit, average over […]-3.2 mM ATP): 672 ± 93 nmol/min/mg | VMAX of Pgp-coupled ATPase with ATP alone (discussion) ([1]; no verapamil): 500 to 700 nmol/min/mg | Kd ([1]; read-out: KD4 (ATP to EV, one bound verapamil), COPASI fit, 0.5 mM ATP data set): 1490 µM | Kd ([1]; read-out: KD4 (ATP to EV, one bound verapamil), COPASI fit, 1 mM ATP data set): 1340 µM | Kd ([1]; read-out: KD4 (ATP to EV, one bound verapamil), COPASI fit, 2 mM ATP data set): 1030 µM | Kd ([1]; read-out: KD4 (ATP to EV, one bound verapamil), COPASI fit, 3.2 mM ATP data set): 1000 µM | Kd ([1]; read-out: KD4 (ATP to EV, one bound verapamil), COPASI fit, […] ATP data set): 1350 µM | Kd ([1]; read-out: KD5 (ATP to EVV, two bound verapamil), COPASI fit, 3.2 mM ATP data set): 210 µM | Km ([1]; read-out: Km for ATP in the presence of Na3VO4, 200 µM Na3VO4, range of ATP concentrations, Equation 1): 906 ± 476 µM
